Values quoted from earlier work, collected in patent US11452694B2, “High concentration dosage forms of pridopidine” (PRILENIA NEUROTHERAPEUTICS LTD., priority 2017, dated 2022).

Tested on: neuroblastoma cell line
Conditions: SIR-dependent manner

For `CCCN1CCC(c2cccc(S(C)(=O)=O)c2)CC1` [Pridopidine, 4-(3-(Methylsulfonyl)phenyl)-1-propylpiperidine], the “secretion of brain-derived neurotrophic factor (BDNF)” value is given as “enhance secretion”.
